Results on 27 compounds are retold here after US9278962B2 (Cytokinetics, Inc., priority 2011, dated 2016).

The subject of the experiment is rabbit skeletal myofibrils (approximately 90% fast fibers). Briefly: Activation of fast skeletal myofibrils (PUMA coupled-enzyme ATPase assay, AC1.4). Conditions: concentration at which the compound increased enzymatic activity by 40%, calcium at pCa25. The format is biochemical.

With `NC(=O)c1ccc(Cl)c2nc(NC[C@]3(c4ncccc4F)C[C@H](F)C3)sc12` [4-chloro-2-((3-fluoro-1-(3-fluoropyridin-2-yl)cyclobutyl)methylamino)benzo[d] thiazole-7-carboxamide], the “Mean AC1.4” value (Table 4) is on record as “B (B=1-10 uM)”.
For `NC(=O)c1ccc(Cl)c(-c2nnc(NC[C@]3(c4ncccc4F)C[C@H](F)C3)s2)c1` [4-chloro-3-(5-((3-fluoro-1-(3-fluoropyridin-2-yl)cyclobutyl)methylamino)-1,3,4-thiadiazol-2-yl)benzamide], for the setting “Table 3”, the “Mean AC1.4” value is on record as “A (A=<1 uM)”.
Still for that read-out and setting: then `N#Cc1ccc(Cl)c(-c2nnc(NC[C@]3(c4ncccc4F)C[C@@H](F)C3)s2)c1` [4-chloro-3-(5-(((cis)-3-fluoro-1-(3-fluoropyridin-2-yl)cyclobutyl)methylamino)-1,3,4-thiadiazol-2-yl)benzonitrile], with “B (B=1-10 uM)”; and `N#Cc1ccc(Cl)c(-c2nnc(NC[C@]3(c4ncccc4F)C[C@H](F)C3)s2)c1` [4-chloro-3-(5-(((trans)-3-fluoro-1-(3-fIuoropyridin-2-yl)cyclobutyl)methylamino)-1,3,4-thiadiazol-2-yl)benzonitrile], with “A (A=<1 uM)”.
Consider `CC(C)(CNc1nc2c(Cl)cccc2s1)c1ccc(F)cc1` [4-chloro-N-(2-(4-fluorophenyl)-2-methylpropyl)benzo[d]thiazol-2-amine], for which, for the setting “Table 4”, the “Mean AC1.4” value is reported as “A (A=<1 uM)”.
For the compound `CC(C)(CNc1nc2c(C#N)cc(C(N)=O)cc2s1)c1ccc(F)cc1` [4-cyano-2-(2-(1-fluorophenyl)-2-methylpropylamino)benzo[d] thiazole-6-carboxamide], the “Mean AC1.4” value (Table 4) is recorded as “A (A=<1 uM)”.
Regarding `N#Cc1cc(C(N)=O)cc2sc(NCC3(c4ncccc4F)CCC3)nc12` [4-cyano-2-((1-(3-fluoropyridin-2-yl)cyclobutyl)methylamino)benzo[d] thiazole-6-carboxamide], the “Mean AC1.4” value (Table 4) was “A (A=<1 uM)”.
As to `Cn1nc(NC2(c3ncccc3F)CCC2)nc1-c1cc(C(N)=O)ccc1F` [4-fluoro-3-(5-(1-(3-fluoropyridin-2-yl)cyclobutylamino)-2-methyl-2H-1,2,4-triazol-3-yl)benzamide], the “Mean AC1.4” value (Table 5) is “D (D=>20 uM)”.
On the same count and under the same terms, the value for `Cn1nc(NC2(c3ncccc3F)CCC2)nc1-c1cc(C#N)ccc1F` [4-fluoro-3-(5-(1-(3-fluoropyridin-2-yl)cyclobutylamino)-2-methyl-2H-1,2,4-triazol-3-yl)benzonitrile] was “D (D=>20 uM)”; that for `NC(=O)c1ccc(F)c(-c2nnc(NC3(c4ncccc4F)CCC3)[nH]2)c1` [4-fluoro-3-(5-(1-(3-fluoropyridin-2-yl)cyclobutylamino)-4H-1,2,4-triazol-3-yl)benzamide] was “D (D=>20 uM)”; that for `N#Cc1ccc(F)c(-c2nnc(NC3(c4ncccc4F)CCC3)[nH]2)c1` [4-fluoro-3-(5-(1-(3-fluoropyridin-2-yl)cyclobutylamino)-4H-1,2,4-triazol-3-yl)benzonitrile] was “D (D=>20 uM)”.
As for `CC(C)(Nc1nnc(-c2cc(C(N)=O)ccc2F)o1)c1ccc(F)cc1` [4-fluoro-3-(5-(2-(4-fluorophenyl)propan-2-ylamino)-1,3,4-oxadiazol-2-yl)benzamide], the “Mean AC1.4” value (Table 5) is “C (C=10-20 uM)”.
Take `CC(C)(Nc1nnc(-c2cc(C#N)ccc2F)o1)c1ccc(F)cc1` [4-fluoro-3-(5-(2-(4-fluorophenyl)propan-2-ylamino)-1,3,4-oxadiazol-2-yl)benzonitrile]: the “Mean AC1.4” value (Table 5) is “D (D=>20 uM)”.
Same read-out and setting: then `Cn1c(NC(C)(C)c2ccc(F)cc2)nnc1-c1cc(C(N)=O)ccc1F` [4-fluoro-3-(5-(2-(4-fluorophenyl)propan-2-ylamino)-4-methyl-4H-1,2,4-triazol-3-yl)benzamide], with “D (D=>20 uM)”.
For `NC(=O)c1ccc(F)c(-c2nnc(NCC3(c4ncccc4F)CCC3)s2)c1` [4-fluoro-3-(5-((1-(3-fluoropyridin-2-yl)cyclobutyl)methylamino)-1,3,4-thiadiazol-2-yl)benzamide], the “Mean AC1.4” value (Table 3) is recorded as “A (A=<1 uM)”.
On to `N#Cc1ccc(F)c(-c2nnc(NCC3(c4ncccc4F)CCC3)s2)c1` [4-fluoro-3-(5-((1-(3-fluoropyridin-2-yl)cyclobutyl)methylamino)-1,3,4-thiadiazol-2-yl)benzonitrile], for which, under “Table 3”, the “Mean AC1.4” value was “B (B=1-10 uM)”.
Still for that read-out and setting: the value for `NC(=O)c1ccc(F)c(-c2nnc(NC[C@]3(c4ncccc4F)C[C@H](F)C3)s2)c1` [4-fluoro-3-(5-((3-fluoro-1-(3-fluoropyridin-2-yl)cyclobutyl)methylamino)-1,3,4-thiadiazol-2-yl)benzamide] was “A (A=<1 uM)”; that for `N#Cc1ccc(F)c(-c2nnc(NC[C@]3(c4ncccc4F)C[C@H](F)C3)s2)c1` [4-fluoro-3-(5-((3-fluoro-1-(3-fluoropyridin-2-yl)cyclobutyl)methylamino)-1,3,4-thiadiazol-2-yl)benzonitrile] was “B (B=1-10 uM)”.
As to `NC(=O)c1ccc(F)c(-c2nsc(NC3(c4ncccc4F)CCC3)n2)c1` [4-fluoro-3-(5-{[(3-fluoro(2-pyridyl))cyclobutyl]amino}(1,2,4-thiadiazol-3-yl))benzamide], where the note is “Table 2”, the “Mean AC1.4” value is listed as “D (D=>20 uM)”.
Consider `Fc1cccnc1C1(CNc2nnc(-c3ccccc3Cl)s2)CCC1` [5-(2-chlorophenyl)-N-((1-(3-fluoropyridin-2-yl)cyclobutyl)methyl)-1,3,4-thiadiazol-2-amine], for which, for the setting “Table 3”, the “Mean AC1.4” value is “A (A=<1 uM)”.
On the same count and under the same terms, then `CC(C)(CNc1nnc(-c2ccc3[nH]nc(N)c3c2)s1)c1ccc(F)cc1` [5-(3-amino-1H-indazol-5-yl)-N-(2-(4-fluorophenyl)-2-methylpropyl)-1,3,4-thiadiazol-2-amine], with “A (A=<1 uM)”; and `Fc1cccnc1C1(CNc2nnc(-c3ccc(Br)cc3)s2)CCC1` [5-(4-bromophenyl)-N-((1-(3-fluoropyridin-2-yl)cyclobutyl)methyl)-1,3,4-thiadiazol-2-amine], with “B (B=1-10 uM)”; and `Cc1cc(C#N)sc1-c1nnc(NC[C@]2(c3ncccc3F)C[C@H](F)C2)s1` [5-(5-((3-fluoro-1-(3-fluoropyridin-2-yl)cyclobutyl)methylamino)-1,3,4-thiadiazol-2-yl)-4-methylthiophene-2-carbonitrile], with “B (B=1-10 uM)”.
On to `Cc1cc(C(N)=O)sc1-c1nnc(NC[C@]2(c3ncccc3F)C[C@H](F)C2)s1` [5-(5-((3-fluoro-1-(3-fluoropyridin-2-yl)cyclobutyl)methylamino)-1,3,4-thiadiazol-2-yl)-4-methylthiophene-2-carboxamide], for which the “Mean AC1.4” value (Table 3) is reported as “B (B=1-10 uM)”.
Still for that read-out and setting: the value for `N#Cc1ccc(-c2nnc(NC[C@]3(c4ncccc4F)C[C@H](F)C3)s2)s1` [5-(5-((3-fluoro-1-(3-fluoropyridin-2-yl)cyclobutyl)methylamino)-1,3,4-thiadiazol-2-yl)thiophene-2-carbonitrile] was “D (D=>20 uM)”; that for `NC(=O)c1ccc(-c2nnc(NC[C@]3(c4ncccc4F)C[C@H](F)C3)s2)s1` [5-(5-((3-fluoro-1-(3-fluoropyridin-2-yl)cyclobutyl)methylamino)-1,3,4-thiadiazol-2-yl)thiophene-2-carboxamide] was “B (B=1-10 uM)”.
Regarding `Fc1cccnc1[C@]1(CNc2nnc(-c3cc(Br)ccc3Cl)s2)C[C@H](F)C1` [5-(5-bromo-2-chlorophenyl)-N-(((cis)-3-fluoro-1-(3-fluoropyridin-2-yl)cyclobutyl)methyl)-1,3,4-thiadiazol-2-amine], the “Mean AC1.4” value (Table 3) was “A (A=<1 uM)”.
